The supplement of paper PMC9663587

Experiments:
THZ531 = compound: CN(C)C/C=C/C(=O)Nc1ccc(C(=O)N2CCC[C@@H](Nc3ncc(Cl)c(-c4c[nH]c5ccccc45)n3)C2)cc1 [THZ531]; experiment: increase in dead-cell fraction, 72 h; higher = more death;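 also: breast cancer cell lines in 384-well plates, stained with Hoechst plus LIVE/DEAD far red dye and imaged, cells above an LDR intensity threshold counted dead, Hoechst-negative corpses included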
YKL-5-124 [1] = compound: T1, C=CC(=O)Nc1ccc(C(=O)Nc2[nH]nc3c2CN(C(=O)N[C@H](CN(C)C)c2ccccc2)C3(C)C)cc1 [YKL-5-124]; experiment: as above
Cisplatin = compound: N.N.Cl[Pt]Cl [Cisplatin]
YKL-5-124 [2] = compound: T1, YKL-5-124
Etoposide = compound: COc1cc([C@@H]2c3cc4c(cc3[C@@H](O[C@@H]3O[C@@H]5CO[C@@H](C)O[C@H]5[C@H](O)[C@H]3O)[C@H]3COC(=O)[C@H]23)OCO4)cc(OC)c1O [Etoposide]
Topotecan = compound: CC[C@@]1(O)C(=O)OCc2c1cc1n(c2=O)Cc2cc3c(CN(C)C)c(O)ccc3nc2-1 [Topotecan]
[3] = compound: COc1cccc(OCCCN)c1-c1cc(Nc2cnc(C#N)cn2)n[nH]1
Bleomycin = compound: CC1=C(N=C(N=C1N)[C@H](CC(=O)N)NC[C@@H](C(=O)N)N)C(=O)N[C@@H]([C@H](C2=CN=CN2)OC3C(C(C(C(O3)CO)O)O)OC4C(C(C(C(O4)CO)O)OC(=O)N)O)C(=O)N[C@H](C)[C@H]([C@H](C)C(=O)N[C@@H]([C@@H](C)O)C(=O)NCCC5=NC(=CS5)C6=NC(=CS6)C(=O)NCCC[S+](C)C)O [Bleomycin]; details: main component drawn
Everolimus = compound: CO[C@H]1C[C@@H]2CC[C@@H](C)[C@@](O)(O2)C(=O)C(=O)N2CCCC[C@H]2C(=O)O[C@H]([C@H](C)C[C@@H]2CC[C@@H](OCCO)[C@H](OC)C2)CC(=O)[C@H](C)/C=C(\C)[C@@H](O)[C@@H](OC)C(=O)[C@H](C)C[C@H](C)/C=C/C=C/C=C/1C [Everolimus]
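For GR50, 72 h in this document: breast cancer and non-malignant breast epithelial cell lines, Deep Dye Drop or Dye Drop imaging, nine half-log doses, GR normalized to time-zero plates and DMSO-only controls.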

| Cell Line | increase in dead-cell fraction (THZ531; 0.0001 µM) | increase in dead-cell fraction (THZ531; 0.0003162 µM) | increase in dead-cell fraction (THZ531; 0.001 µM) | increase in dead-cell fraction (THZ531; 0.003162 µM) | increase in dead-cell fraction (THZ531; 0.01 µM) | increase in dead-cell fraction (THZ531; 0.03162 µM) | increase in dead-cell fraction (THZ531; 0.1 µM) | increase in dead-cell fraction (THZ531; 0.3162 µM) | increase in dead-cell fraction (THZ531; 1 µM) | increase in dead-cell fraction (YKL-5-124 [1]; 0.001 µM) | increase in dead-cell fraction (YKL-5-124 [1]; 0.003162 µM) | increase in dead-cell fraction (YKL-5-124 [1]; 0.01 µM) | increase in dead-cell fraction (YKL-5-124 [1]; 0.03162 µM) | increase in dead-cell fraction (YKL-5-124 [1]; 0.1 µM) | increase in dead-cell fraction (YKL-5-124 [1]; 0.3162 µM) | increase in dead-cell fraction (YKL-5-124 [1]; 1 µM) | increase in dead-cell fraction (YKL-5-124 [1]; 3.162 µM) | increase in dead-cell fraction (YKL-5-124 [1]; 10 µM) | GR50, 72 h (Cisplatin) [µM] | GR50, 72 h (YKL-5-124 [2]) [µM] | GR50, 72 h (Etoposide) [µM] | GR50, 72 h (Topotecan) [µM] | GR50, 72 h [3] [µM] | GR50, 72 h (Bleomycin) [µM] | GR50, 72 h (Everolimus) [µM] |
| --- | --- | --- | --- | --- | --- | --- | --- | --- | --- | --- | --- | --- | --- | --- | --- | --- | --- | --- | --- | --- | --- | --- | --- | --- | --- |
| BT20 | -0.0017 | 0.0012 | -0.0051 | 0.0009 | -0.0031 | -0.0002 | 0.003 | 0.0032 | 0.0097 | 0.0021 | 0.0037 | 0.0071 | 0.0095 | 0.0196 | 0.01 | 0.0231 | 0.0292 | 0.0824 | 0.791 | 0.0135 | 0.301 | 0.0123 | 0.000944 | 0.488 |  |
| HCC1954 | 0.0002 | 0.0055 | 0.0013 | 0.0058 | 0.0048 | 0.004 | 0.0127 | 0.0525 | 0.42 | 0.076 | 0.0781 | 0.11 | 0.0779 | 0.129 | 0.104 | 0.102 | 0.0854 | 0.15 | 1.25 | < 0.001 | 0.171 | 0.0119 |  | 0.0438 |  |
| ZR7530 | 0.0074 | 0.0167 | 0.0003 | 0.0105 | -0.0154 | -0.0168 | 0.129 | 0.234 | 0.0722 | 0.039 | 0.0535 | 0.0595 | 0.0181 | 0.0418 | 0.04 | 0.0587 | 0.0125 | 0.105 |  |  |  |  |  |  |  |
| MGH312 | -0.0016 | 0.006 | 0.0097 | 0.002 | -0.0045 | 0.0455 | 0.662 | 0.72 | 0.639 | 0.0188 | 0.0332 | 0.0482 | 0.0591 | 0.0669 | 0.0808 | 0.0821 | 0.15 | 0.61 |  | 0.00434 |  |  |  |  | < 0.001 |
| HS578T | 0.0179 | 0.0236 | -0.0057 | 0.0346 | -0.004 | 0.0086 | 0.182 | 0.2 | 0.283 | 0.0377 | 0.0487 | 0.0429 | 0.127 | 0.139 | 0.155 | 0.13 | 0.125 | 0.492 | 1.54 | < 0.001 | 0.413 | 0.00498 |  | 0.252 | 0.00554 |
| SUM44PE | -0.0163 | -0.0027 | 0.0202 | -0.008 | -0.0392 | -0.0411 | 0.0916 |  |  | 0.376 | 0.0121 | 0.0391 | 0.053 | 0.0951 | 0.0965 | 0.127 | 0.447 |  |  |  |  |  | 0.000342 |  | < 0.001 |
| HCC1187 | 0.0118 | -0.0088 | -0.0009 | -0.0126 | -0.0087 | -0.0107 | 0.36 | 0.611 |  | 0.0446 | 0.0713 | 0.133 | 0.0654 | 0.0694 | 0.0946 | 0.164 | 0.17 | 0.406 |  |  |  |  |  |  | > 10 |
| 184A1 | 0.0016 | 0.0042 | 0.0042 | 0.0053 | -0.004 | 0.0024 | 0.0107 | 0.0204 | 0.447 | 0.02 | 0.0379 | 0.119 | 0.122 | 0.147 | 0.0805 | 0.137 | 0.179 | 0.34 |  | < 0.001 |  |  |  |  | > 10 |
